Molecules are shown by their SMILES.

The target in the test is T1, wild-type HIV-1 protease (Human immunodeficiency virus type 1 group M subtype B, UniProt P04585).
T1 construct: Escherichia coli expressed wild-type HIV-1 protease protein; made in house; host or cells: Escherichia coli
As to the kind of experiment: Assay for Inhibition of Microbial Expressed HIV Protease. To be noted: E. coli expressed wild-type HIV-1 protease, peptide substrate cleavage, LC-MS readout; mean of at least two independent experiments; read-out: HIV Pr Enzyme HIV1 PR IC50. The format is biochemical. How it is done: Assay for Inhibition of Microbial Expressed HIV Protease
Inhibition of Escherichia coli expressed wild-type HIV-1 protease protein was carried out with a peptide substrate [Val-Ser-Gln-Asn-(βnaphtyl)Ala-Pro-Ile-Val]. The inhibitor compound was preincubated with HIV-1 protease enzyme in assay buffer (50 mM sodium acetate, pH 5.5, 100 mM NaCl, and 0.1% BSA) for 30 minutes at room temperature. Peptide substrate was added to […] in a total volume of 20 μL containing 20 pM HIV-1 protease (final) after which the reaction was incubated for 1 hour at 30° C. The reaction was quenched by the addition of formic acid and HIV protease inhibitor indinavir to 0.012% and 150 nM final concentrations, respectively. Product formation was determined after separation of product and substrate on a ZORBAX Eclipse XDB-C18 column (Aligent Technologies, Santa Clara, Calif., USA) connected to an API 4000™ mass spectrometer (AB Sciex, Pte. Ltd., Concord Ontario, Canada) with multiple reaction monitoring (transitions were 644.5/428.9 and 615.4/422.2 (M1/M3) for product and indinavir respectively). The extent of inhibition of the reaction was determined from the peak area of the products. Analysis of the products, independently synthesized, provided quantitation standards and confirmation of the product composition.
In the case of `COC(=O)N[C@@H](Cc1ccccc1)C(=O)N[C@H](CCCN1C(=N)N[C@](CC(C)C)(c2ccccc2)C1=O)C1CC1` [Example 36, N-{(1R)-1-cyclopropyl-4-[(4R)-2-imino-4-(2-methylpropyl)-5-oxo-4-phenylimidazolidin-1-yl]butyl}-N-alpha-(methoxycarbonyl)-L-phenylalaninamide], the IC50 came out at 9 nM.

`CC(C)OC(=O)N[C@@H](Cc1ccccc1)C(=O)NCCCCN1C(=N)NC(c2ccccc2)(c2ccccc2)C1=O` [Example 26, N-[4-(2-imino-5-oxo-4,4-diphenylimidazolidin-1-yl)butyl]-N-alpha-[(1-methylethoxy)carbonyl]-L-phenylalaninamide]: the IC50 worked out at 27 nM.

In the case of `COC(=O)N[C@@H](Cc1cccc(Cl)c1)C(=O)N[C@H](CCCN1C(=N)N[C@](CC(C)C)(c2ccccc2)C1=O)C1CC1` [Example 32, 3-chloro-N-{(1R)-1-cyclopropyl-4-[(4R)-2-imino-4-(2-methylpropyl)-5-oxo-4-phenylimidazolidin-1-yl]butyl}-N-alpha-(methoxycarbonyl)-L-phenylalaninamide], the IC50 came to 43 nM.

Consider `N#Cc1cccc(C[C@H](N)C(=O)NCCCCN2C(=N)NC(c3ccccc3)(c3ccccc3)C2=O)c1` [Example 24, 3-cyano-N-[4-(2-imino-5-oxo-4,4-diphenylimidazolidin-1-yl)butyl]-L-phenylalaninamide], for which the IC50 was determined as 22 nM.

As to `CC[C@@H](CCCN1C(=N)N[C@](CC(C)C)(c2ccccc2)C1=O)NC(=O)[C@H](Cc1ccccc1)NC(=O)OC` [Example 47, N-{(1S)-1-ethyl-4-[(4R)-2-imino-4-(2-methylpropyl)-5 oxo-4-phenylimidazolidin-1 yl]butyl}-N-alpha-(methoxycarbonyl)-L-phenylalaninamide], the IC50 was determined as 22 nM.

With `COC(=O)N[C@@H](CC1CCCCC1)C(=O)N[C@@H](C)CCCN1C(=N)N[C@](CC(C)C)(c2ccccc2)C1=O` [Example 41, methyl [(1S)-1-(cyclohexylmethyl)-2-({(1S)-4-[(4R)-2-imino-4-(2-methylpropyl)-5-oxo-4-phenylimidazolidin-1-yl]-1-methylbutyl}amino)-2-oxoethyl]carbamate], the IC50 was 31 nM.

Regarding `CC(=O)N[C@@H](Cc1ccccc1)C(=O)NCCCCN1C(=N)NC(c2ccccc2)(c2ccccc2)C1=O` [Example 3, N-alpha-acetyl-N-[4-(2-imino-5-oxo-4,4-diphenylimidazolidin-1-yl)butyl]-L-phenylalaninamide], the IC50 was 8 nM.

For the compound `CC(C)CCC1(c2ccccc2)NC(=N)N(CCCCNC(=O)[C@@H](N)Cc2ccccc2)C1=O` (stereo partly drawn) [Example 18, N-{4-[2-imino-4-(3-methylbutyl)-5-oxo-4-phenylimidazolidin-1-yl]butyl}-L-phenylalaninamide], the IC50 worked out at 25 nM.

`N=C1NC(c2ccccc2)(c2ccccc2)C(=O)N1CCCCNC(=O)[C@@H](N)Cc1ccccc1` [Example 2, N-[4-(2-imino-5-oxo-4,4-diphenylimidazolidin-1-yl)butyl]-L-phenylalaninamide]: the IC50 amounted to 11 nM.

Turning to `COC(=O)N[C@@H](Cc1ccccc1Cl)C(=O)NC(CCCN1C(=N)N[C@](CC(C)C)(c2ccccc2)C1=O)CC1CC1` (stereo partly drawn) [Example 31, 2-chloro-N-{1-(cyclopropylmethyl)-4-[(4R)-2-imino-4-(2-methylpropyl)-5-oxo-4-phenylimidazolidin-1-yl]butyl}-N-alpha-(methoxycarbonyl)-L-phenylalaninamide_], the IC50 turned out to be 80 nM.

For `COC(=O)N[C@@H](Cc1ccccc1)C(=O)N[C@@H](C)CCCN1C(=N)NC(c2ccccc2)(c2ccccc2)C1=O` [Example 7, N-[(1S)-4-(2-imino-5-oxo-4,4-diphenylimidazolidin-1-yl)-1-methylbutyl]-N-alpha-(methoxycarbonyl)-L-phenylalaninamide], the half-inhibitory concentration (IC50) was 2 nM.

With `N=C1NC(c2ccccc2)(c2ccccc2)C(=O)N1CCCCNC(=O)[C@@H](N)Cc1cccnc1` [Example 9, N-[4-(2-imino-5-oxo-4,4-diphenylimidazolidin-1-yl)butyl]-3-pyridin-3-yl-L-alaninamide], the IC50 amounted to 31 nM.

`COC(=O)N[C@@H](Cc1ccccn1)C(=O)NCCCCN1C(=N)NC(c2ccccc2)(c2ccccc2)C1=O` [Example 12, methyl [(1S)-2-{[4-(2-imino-5-oxo-4,4-diphenylimidazolidin-1-yl)butyl]amino}-2-oxo-1-(pyridin-2-ylmethyl)ethyl]carbamate]: the IC50 was determined as 21 nM.

For the compound `COC(=O)N[C@@H](Cc1ccccc1)C(=O)N[C@H](CCCN1C(=N)N[C@](CC(C)C)(c2ccccc2)C1=O)C(F)(F)F` [Example 46, N-[(1R)-4-[(4R)-2-imino-4-(2-methylpropyl)-5-oxo-4-phenylimidazolidin-1-yl]-1-(trifluoromethyl)butyl]-N-alpha-(methoxycarbonyl)-L-phenylalaninamide], the IC50 was determined as 32 nM.

As for `COC(=O)N[C@@H](Cc1ccccc1Cl)C(=O)N[C@H](CCCN1C(=N)N[C@](CC(C)C)(c2ccccc2)C1=O)C(C)C` [Example 44, 2-chloro-N-[(1R)-4-[(4R)-2-imino-4-(2-methylpropyl)-5-oxo-4-phenylimidazolidin-1-yl]-1-(1-methylethyl)butyl]-N-alpha-(methoxycarbonyl)-L-phenylalaninamide], the half-maximal inhibitory concentration (IC50) amounted to 20 nM.

Regarding `N=C1NC(c2ccccc2)(c2ccccc2)C(=O)N1CCCCNC(=O)[C@@H](N)CCc1ccccc1` [Example 5, (2S)-2-amino-N-[4-(2-imino-5-oxo-4,4-diphenylimidazolidin-1-yl)butyl]-4-phenylbutanamide], the IC50 amounted to 6 nM.

On to `COC(=O)N[C@@H](Cc1ccccc1)C(=O)NCCC[C@@H](CC1CC1)N1C(=N)N[C@](CC(C)C)(c2ccccc2)C1=O` [Example 53, N-{(4S)-5-cyclopropyl-4-[(4R)-2-imino-4-(2-methylpropyl)-5-oxo-4-phenylimidazolidin-1-yl]pentyl}-N-alpha-(methoxycarbonyl)-L-phenylalaninamide], for which the IC50 was determined as 249 nM.

With `COC(=O)N[C@@H](Cc1ccc2ccccc2c1)C(=O)N[C@@H](C)CCCN1C(=N)N[C@](CC(C)C)(c2ccccc2)C1=O` [Example 42, methyl ((S)-1-(((S)-5-((R)-2-imino-4-isobutyl-5-oxo-4-phenylimidazolidin-1-yl)pentan-2-yl)amino)-3-(naphthalen-2-yl)-1-oxopropan-2-yl)carbamate], the IC50 came to 46 nM.

As to `COC(=O)N[C@@H](Cc1ccccc1Cl)C(=O)N[C@H](CCCN1C(=N)N[C@](CC(C)C)(c2ccccc2)C1=O)C1CC1` [Example 33, 2-chloro-N-{(1R)-1-cyclopropyl-4-[(4R)-2-imino-4-(2-methylpropyl)-5-oxo-4-phenylimidazolidin-1-yl]butyl}-N-alpha-(methoxycarbonyl)-L-phenylalaninamide], the IC50 was 23 nM.

Turning to `COC(=O)N[C@@H](Cc1cccc(Cl)c1)C(=O)NC(CCCN1C(=N)N[C@](CC(C)C)(c2ccccc2)C1=O)CC1CC1` (stereo partly drawn) [Example 30, 3-chloro-N-{1-(cyclopropylmethyl)-4-[(4R)-2-imino-4-(2-methylpropyl)-5-oxo-4-phenylimidazolidin-1-yl]butyl}-N-alpha-(methoxycarbonyl)-L-phenylalaninamide], the IC50 came out at 97 nM.

For the compound `N=C1NC(c2ccccc2)(c2ccccc2)C(=O)N1CCCCCNC(=O)[C@@H](N)Cc1ccccc1` [Example 14, N-[5-(2-imino-5-oxo-4,4-diphenylimidazolidin-1-yl)pentyl]-L-phenylalaninamide], the IC50 was 67 nM.

As to `COC(=O)N[C@@H](Cc1ccccc1)C(=O)NCCCCN1C(=N)NC(CCC(C)C)(c2ccccc2)C1=O` (stereo partly drawn) [Example 19, N-{4-[2-imino-4-(3-methylbutyl)-5-oxo-4-phenylimidazolidin-1-yl]butyl}-N-alpha-(methoxycarbonyl)-L-phenylalaninamide], the IC50 stood at 24 nM.

In the case of `COC(=O)N[C@@H](Cc1ccccc1Cl)C(=O)N[C@@H](C)CCCN1C(=N)N[C@](CC(C)C)(c2ccccc2)C1=O` [Example 34, 2-chloro-N-{(1S)-4-[(4R)-2-imino-4-(2-methylpropyl)-5-oxo-4-phenylimidazolidin-1-yl]-1-methylbutyl}-N-alpha-(methoxycarbonyl)-L-phenylalaninamide], the IC50 amounted to 18 nM.

With `COC(=O)N[C@@H](Cc1cccc(OC)c1)C(=O)N[C@@H](C)CCCN1C(=N)N[C@](CC(C)C)(c2ccccc2)C1=O` [Example 40, N-{(1S)-4-[(4R)-2-imino-4-(2-methylpropyl)-5-oxo-4-phenylimidazolidin-1-yl]-1-methylbutyl}-3-methoxy-N-alpha-(methoxycarbonyl)-L-phenylalaninamide], the IC50 turned out to be 54 nM.

With `COC(=O)N[C@@H](Cc1ccccc1)C(=O)NCCC[C@@H](CCC1CC1)N1C(=N)N[C@](CC(C)C)(c2ccccc2)C1=O` [Example 56, N-{(4R)-6-cyclopropyl-4-[(4R)-2-imino-4-(2-methylpropyl)-5-oxo-4-phenylimidazolidin-1-yl]hexyl}-N-alpha-(methoxycarbonyl)-L-phenylalaninamide], the IC50 was 100 nM.

The record behind these values is US10696639B2, “Heterocyclic compounds as HIV protease inhibitors” (Merck Sharp & Dohme Corp., priority 2016, dated 2020).
